According to patent publication US12319655B2, “RAF kinase inhibitors and methods of use thereof” (Deciphera Pharmaceuticals, LLC, priority 2021, dated 2025):

Key:
WM3928 cells = test: WM3928 Cell Proliferation Assay (1); type: cell-based
Outline: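 IC50 was derived from resazurin fluorescence (ex 540, em 600 nm) after a 6–7 h dye incubation. Before that, cells had 67–72 h of compound exposure at 37 °C, 5% CO2.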

Miapaca-2 cells = test: MiaPaca-2 Cell Proliferation Assay (1); type: cell-based; settings: Homo sapiens, MIA PaCa-2, single agent, read-out: MiaPaca2 (1) IC50
Outline: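 Resazurin was added after compound exposure and incubated 5-6 h, then fluorescence read at 540 nm excitation and 600 nm emission to give IC50.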

[1] = biological target: B-Raf kinase (SEQ. ID NO: 2) (Homo sapiens (Human), UniProt P15056); test: Biochemical Assay for B-Raf (1); settings: Table J, assay version (1); read-out: BRAF (1) IC50
Outline: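 IC50 derived by four-parameter sigmoidal fit of percent inhibition, normalised to uninhibited and reference-inhibitor controls, using reaction rates over 4–5 h. Coupled spectrophotometric readout (NADH loss at 340 nm, 6 h, 30° C.); 1 mM ATP, 30.1 nM MEK, 0.13 nM B-Raf, pH 7.5 Tris buffer, 1% DMSO.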

[2] = biological target: A-Raf kinase (SEQ. ID No: 1) (Homo sapiens (Human), UniProt P10398, Y301D/Y302D); test: Biochemical Assay for A-Raf (1); settings: Table J, assay version (1); read-out: ARAF (1) IC50
Outline: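 IC50 values were derived by four-parameter sigmoidal fitting of percent inhibition, calculated from reaction rates over the 4–5 h window. Absorbance at 340 nm was tracked for 6 h at 30 °C via coupled PK/LDH NADH depletion. Conditions: 1 mM ATP, 30.1 nM MEK substrate, 5.55 nM A-Raf (Y301D/Y302D), Tris pH 7.5, 1% DMSO.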

B-Raf kinase (SEQ. ID NO: 2), sequence (P15056 416-766): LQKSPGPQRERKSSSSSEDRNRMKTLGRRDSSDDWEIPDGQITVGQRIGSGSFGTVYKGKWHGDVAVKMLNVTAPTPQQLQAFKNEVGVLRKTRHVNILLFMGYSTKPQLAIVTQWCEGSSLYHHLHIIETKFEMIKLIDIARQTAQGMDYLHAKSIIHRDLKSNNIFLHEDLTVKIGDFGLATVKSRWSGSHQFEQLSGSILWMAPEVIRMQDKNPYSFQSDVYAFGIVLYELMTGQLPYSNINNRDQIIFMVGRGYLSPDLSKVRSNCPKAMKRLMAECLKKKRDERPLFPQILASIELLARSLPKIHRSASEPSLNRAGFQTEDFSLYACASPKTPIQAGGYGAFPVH
A-Raf kinase (SEQ. ID No: 1), sequence (P10398 other isoform, or with tags, fused parts or gaps Y301D (already in the parent)/Y302D (already in the parent)): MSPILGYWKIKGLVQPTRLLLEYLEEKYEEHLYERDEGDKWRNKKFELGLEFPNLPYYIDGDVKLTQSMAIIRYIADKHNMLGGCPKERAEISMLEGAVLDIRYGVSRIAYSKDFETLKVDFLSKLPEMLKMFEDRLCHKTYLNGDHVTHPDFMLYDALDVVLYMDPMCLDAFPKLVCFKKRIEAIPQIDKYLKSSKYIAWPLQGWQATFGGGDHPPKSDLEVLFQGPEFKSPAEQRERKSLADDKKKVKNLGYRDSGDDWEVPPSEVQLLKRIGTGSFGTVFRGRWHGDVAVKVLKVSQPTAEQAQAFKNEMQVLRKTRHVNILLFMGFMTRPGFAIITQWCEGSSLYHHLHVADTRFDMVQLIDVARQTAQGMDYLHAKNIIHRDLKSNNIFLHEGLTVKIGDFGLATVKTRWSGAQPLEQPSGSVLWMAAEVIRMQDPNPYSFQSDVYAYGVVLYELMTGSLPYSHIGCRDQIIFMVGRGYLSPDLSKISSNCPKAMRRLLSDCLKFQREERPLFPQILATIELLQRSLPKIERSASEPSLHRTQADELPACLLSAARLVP

Structure (SMILES) | IC50 (WM3928 cells) | IC50 (Miapaca-2 cells) | IC50 [1] | IC50 [2]
Cc1ccc(NC(=O)c2ccnc(C(C)(C)C#N)c2)cc1-c1nccc(-c2ccnc3c2CC(=O)N3)n1 [Example 22] | ≤ 100 nM | 1000 to 10000 nM | ≤ 100 nM | 1000 to 10000 nM
Cc1ccc(NC(=O)c2ccnc(C(C)(C)C#N)c2)cc1-c1ccnc(-c2ccnc3c2CC(=O)N3)c1 [Example 23] | ≤ 100 nM | 1000 to 10000 nM | ≤ 100 nM | 1000 to 10000 nM
CC(=O)Nc1cc(-c2nccc(-c3cc(NC(=O)c4ccnc(C(F)(F)F)c4)ccc3C)n2)ccn1 [Example 24] | ≤ 100 nM | 1000 to 10000 nM | ≤ 100 nM | 500 to 1000 nM
CNC(=O)c1cc(-c2nccc(-c3cc(NC(=O)c4ccnc(C(F)(F)F)c4)ccc3C)n2)ccn1 [Example 25] | 500 to 1000 nM | 1000 to 10000 nM | ≤ 100 nM | 1000 to 10000 nM
CNC(=O)c1cc(-c2cc(-c3cc(NC(=O)c4ccnc(C(F)(F)F)c4)ccc3C)cc(C3CC3)n2)ccn1 [Example 27] | ≤ 100 nM | 1000 to 10000 nM | 100 to 500 nM | 1000 to 10000 nM
CC(=O)Nc1cc(-c2cncc(-c3cc(NC(=O)c4ccnc(C(F)(F)F)c4)ccc3C)n2)ccn1 [Example 29] | ≤ 100 nM | 1000 to 10000 nM | ≤ 100 nM | 1000 to 10000 nM
CC(=O)Nc1cc(-c2cccc(-c3cc(NC(=O)c4ccnc(C(F)(F)F)c4)ccc3C)c2)ncn1 [Example 30] | ≤ 100 nM | 1000 to 10000 nM | ≤ 100 nM | 500 to 1000 nM
Cc1ncc(NC(=O)c2cncc(C(F)F)c2)cc1-c1cccc(-c2cc(NC(=O)C3CC3)ncn2)c1 [Example 280] | ≤ 100 nM | 1000 to 10000 nM | ≤ 100 nM | 1000 to 10000 nM
Cc1ncc(NC(=O)c2cn(C(C)C)nn2)cc1-c1ccnc(-c2ccnc(NC(=O)C3CC3)c2)n1 [Example 281] | 1000 to 10000 nM | 1000 to 10000 nM | ≤ 100 nM | 1000 to 10000 nM
COC(=O)Nc1cc(-c2cccc(-c3cc(NC(=O)c4ccnc(C(C)(C)C#N)c4)cnc3C)c2)ccn1 [Example 282] | 100 to 500 nM | 1000 to 10000 nM | ≤ 100 nM | 1000 to 10000 nM
Cc1ncc(NC(=O)c2cnn(C(C)(C)C)c2)cc1-c1ccnc(-c2ccnc(NC(=O)C3CC3)c2)n1 [Example 283] | 100 to 500 nM | 1000 to 10000 nM | ≤ 100 nM | 1000 to 10000 nM
Cc1ccc(NC(=O)c2cnnc(C3CC3)c2)cc1-c1cccc(-c2cc(NC(=O)C3CC3)ncn2)c1 [Example 284] | ≤ 100 nM | 1000 to 10000 nM | ≤ 100 nM | 500 to 1000 nM
Cc1nc(-c2ccnc(NC(=O)C3CC3)c2)cc(-c2cc(NC(=O)c3ccnc(C4(C#N)CC4)c3)cnc2C)n1 [Example 286] | 100 to 500 nM | 1000 to 10000 nM | ≤ 100 nM | 1000 to 10000 nM
Cc1nc(-c2ccnc(NC(=O)C3CC3)c2)cc(-c2cc(NC(=O)c3ccnc(C4CC4)c3)cnc2C)n1 [Example 287] | 100 to 500 nM | 1000 to 10000 nM | ≤ 100 nM | 1000 to 10000 nM
COC(=O)Nc1cc(-c2cccc(-c3cc(NC(=O)c4ccnc(C5CC5)c4)cnc3C)c2)ccn1 [Example 288] | 1000 to 10000 nM | 1000 to 10000 nM | ≤ 100 nM | 1000 to 10000 nM
COC(=O)Nc1nccc(-c2cccc(-c3cc(NC(=O)c4ccnc(C(C)(C)C#N)c4)cnc3C)c2)n1 [Example 290] | 500 to 1000 nM | 1000 to 10000 nM | 500 to 1000 nM | 1000 to 10000 nM

Structure (SMILES) | IC50 (WM3928 cells) | IC50 (Miapaca-2 cells) | IC50 [1] | IC50 [2]
Cc1ncc(NC(=O)c2ccnc(C3CC3)c2)cc1-c1cccc(-c2cc(NC(=O)C3CC3)ncn2)c1 [Example 291] | ≤ 100 nM | 1000 to 10000 nM | ≤ 100 nM | 1000 to 10000 nM
Cc1ncc(NC(=O)c2ccnc(C3CC3)c2)cc1-c1nccc(-c2ccnc(NC(=O)C3CC3)c2)n1 [Example 295] | 100 to 500 nM | 1000 to 10000 nM | ≤ 100 nM | 1000 to 10000 nM
COC(=O)Nc1cc(-c2cc(-c3cc(NC(=O)c4ccnc(C(C)(C)C#N)c4)cnc3C)ccn2)ccn1 [Example 297] | ≤ 100 nM | 1000 to 10000 nM | ≤ 100 nM | 1000 to 10000 nM
Cc1cc(F)c(NC(=O)c2ccnc(C(C)(C)C#N)c2)cc1-c1cc(-c2ccnc(NC(=O)C3CC3)c2)cnn1 [Example 298] | 100 to 500 nM | 1000 to 10000 nM | ≤ 100 nM | 1000 to 10000 nM
COC(=O)Nc1cc(-c2cnnc(-c3cc(NC(=O)c4ccnc(C(C)(C)C#N)c4)c(F)cc3C)c2)ccn1 [Example 299] | 500 to 1000 nM | 1000 to 10000 nM | ≤ 100 nM | 1000 to 10000 nM
Cc1cc(F)c(NC(=O)c2ccnc(C(C)(C)F)c2)cc1-c1ccnc(-c2ccnc(NC(=O)C3CC3)c2)c1 [Example 300] | ≤ 100 nM | 1000 to 10000 nM | ≤ 100 nM | 1000 to 10000 nM
Cc1ncc(NC(=O)c2ccnc(C(C)(C)C#N)c2)cc1-c1cccc(-c2ccnc(C(N)=O)c2)c1 [Example 301] | 100 to 500 nM | 1000 to 10000 nM | ≤ 100 nM | 1000 to 10000 nM
COC(=O)Nc1cc(-c2nccc(-c3cc(NC(=O)c4ccnc(C(C)(C)F)c4)c(F)cc3C)n2)ccn1 [Example 304] | ≤ 100 nM | 1000 to 10000 nM | ≤ 100 nM | 1000 to 10000 nM
COC(=O)Nc1cc(-c2cnnc(-c3cc(NC(=O)c4ccnc(C(C)(C)C#N)c4)ccc3C)c2)ccn1 [Example 305] | 100 to 500 nM | 1000 to 10000 nM | ≤ 100 nM | 1000 to 10000 nM
Cc1cc(F)c(NC(=O)c2ccnc(C(F)F)c2)cc1-c1ccnc(-c2ccnc(NC(=O)C3CC3)c2)c1 [Example 307] | 100 to 500 nM | 1000 to 10000 nM | ≤ 100 nM | 500 to 1000 nM
COC(=O)Nc1cc(-c2cc(-c3cc(NC(=O)c4ccnc(C(C)(C)C#N)c4)c(F)cc3C)ccn2)ccn1 [Example 308] | ≤ 100 nM | 1000 to 10000 nM | ≤ 100 nM | 1000 to 10000 nM
COC(=O)Nc1cc(-c2cc(-c3cc(NC(=O)c4ccnc(C(F)(F)F)c4)cnc3C)ccn2)ccn1 [Example 312] | 1000 to 10000 nM | 1000 to 10000 nM | ≤ 100 nM | 1000 to 10000 nM
Cc1ncc(NC(=O)C2CCOC(C)(C)C2)cc1-c1cccc(-c2cc(NC(=O)C3CC3)ncn2)c1 (centres unmarked) [Example 348] | 1000 to 10000 nM | 1000 to 10000 nM | 100 to 500 nM | 1000 to 10000 nM
Cc1ccc(NC(=O)C2CCOC(C(C)C)C2)cc1-c1cc(-c2ccnc(NC(=O)C3CC3)c2)cnn1 (centres unmarked) [Example 370] | 1000 to 10000 nM |  | ≤ 100 nM | 1000 to 10000 nM
CNC(=O)c1cc(-c2cc(-c3cc(NC(=O)c4ccnc(C(C)(C)F)c4)ccc3C)cnc2C)ccn1 [Example 371] | 100 to 500 nM |  | 100 to 500 nM | 1000 to 10000 nM
